Experimental data: patent publication US8809619B2, “Knockout mice for a P450 gene cluster” (ITI Scotland Limited, priority 2007, dated 2014)
“Also recorded” adds a separate entry of the source.

Columns and labels:
[1] = 1'-Hydroxymidazolam pharmacokinetics after IV or oral midazolam; settings: for Decrease in AUC for 1'-hydroxymidazolam compared to wild type: midazolam 1 mg/kg IV, rifampicin pre-treated
Experimental: On day 4 of the study midazolam (1 mg/kg) was administered by IV injection to animals from groups 1-6 and orally (2 mg/kg) to mice from groups 7-9. Blood samples were collected at 2, 5, 10, 20, 30, 45, 60, 90, 120 and 150 min (serial bleeds) after IV dosing, at 10, 20, 40, 60, 90, 120, 240 and 360 min after the oral dosing, for PK analysis (Table 3).
Total concentrations of 1′-hydroxymidazolam were measured following pre-treatment of blood with B-glucuronidase. The pharmacokinetics of the 1′-hydroxymidazolam after the IV injection of the parent compound are presented on FIG. 1s.

[2] = test system: Cyp3a; experiment: Oxidation of 7-BQ by liver microsomes
[3] = test system: Cyp3a; experiment: Oxidation of BFC by liver and intestinal microsomes; format: in vitro ADME, mouse
[4] = test system: Cyp3a; experiment: Oxidation of DBF by liver and intestinal microsomes
[5] = Experimental: The study consisted of 4 groups with 4 animals per group. […] On day 4 of the study midazolam (1 mg/kg) was administered by IP injection and 10 μL blood samples were collected at 10, 20, 40, 60, 120, 240 and 360 min for PK analysis (Table 1).
[6] = test system: Cyp1a1 and Cyp1a2; experiment: Ethoxyresorufin de-ethylation activity (EROD) of liver microsomes; format: in vivo, mouse; settings: both strains
Description: (B)—Ethoxyresorufin de-ethylation; (C)—methoxyresorufin de-methylation. Data are mean±SD (n=4).
Ethoxyresorufin de-ethylation activity (EROD) was similar in both Cyp3a cluster KO and wild type mouse liver microsomes. EROD is catalysed by both Cyp1a 1 and Cyp1a2 isoforms, with Cyp1a1 making the major contribution. […] There was no difference in methoxyresoryfin de-methylation (MROD) activity between wild type and Cyp3a cluster KO mice. MROD is catalysed predominantly by Cyp1a2.

[7] = test system: Cyp3a; experiment: 6β-Hydroxylation of testosterone by liver and intestinal microsomes; settings: Cyp3a cluster KO and Cyp3a11 KO
[8] = test system: Cyp2b10 and Cyp2c29; experiment: 16β-Hydroxylation of testosterone by liver microsomes; settings: liver microsomes of both transgenic strains

OCc1ncc2n1-c1ccc(Cl)cc1C(c1ccccc1F)=NC2 [1′-hydroxymidazolam]
Decrease in AUC for 1'-hydroxymidazolam compared to wild type ([1]; Cyp3a11 KO): ~2 times
Decrease in AUC for 1'-hydroxymidazolam compared to wild type ([1]; Cyp3a cluster KO): ~3 times
Terminal phase elimination of 1'-hydroxymidazolam compared to other strains ([1]; Cyp3a cluster KO, midazolam IV): slightly slower elimination

c1ccc(COc2ccc3cccnc3c2)cc1 [7-BQ, 7-benzyloxyquinoline]
Activity towards 7-BQ in Cyp3a cluster KO, level compared to the wild type mice ([2]; conclusion statement): below 20%
7-BQ oxidation in Cyp3a cluster KO liver microsomes, % of corresponding C57BL/6J group ([2]; control animals): 18%
7-BQ oxidation in Cyp3a cluster KO liver microsomes, % of corresponding C57BL/6J group ([2]; rifampicin treated animals): 6.7%

O=c1cc(C(F)(F)F)c2ccc(OCc3ccccc3)cc2o1 [BFC, 7-benzyloxy-4-trifluoromethylcoumarin]
BFC activity between liver microsomal samples ([3]; C57BL/6J, Cyp3a cluster KO, Cyp3a11 KO liver microsomes): no difference
BFC oxidation in intestinal microsomes of transgenic mice ([3]; intestinal microsomes): small but statistically significant increase

O=C(OCc1ccccc1)c1ccccc1-c1c2ccc(=O)cc-2oc2cc(OCc3ccccc3)ccc12 [DBF, dibenzylfluorescein]
DBF oxidation by liver microsomes compared to wild type ([4]; Cyp3a cluster KO and Cyp3a11 KO): pronounced decrease
DBF oxidation by intestinal microsomes, wild type vs knockout strains ([4]; intestinal microsomes): no statistically significant difference

Cc1ncc2n1-c1ccc(Cl)cc1C(c1ccccc1F)=NC2 [midazolam]
Absorption after IP administration ([5]; midazolam 1 mg/kg IP, both mouse strains): fast absorption
Midazolam AUC / PK, Cyp3a cluster KO compared to wild type ([5]; midazolam 1 mg/kg IP, control (untreated) animals): similar; also recorded: no difference
Difference in midazolam AUC, Cyp3a cluster KO vs wild type ([5]; rifampicin treated mice): 1.6 times

CO[C@H]1/C=C/O[C@@]2(C)Oc3c(C)c(O)c4c(O)c(c(/C=N/N5CCN(C)CC5)c(O)c4c3C2=O)NC(=O)/C(C)=C\C=C\[C@H](C)[C@H](O)[C@@H](C)[C@@H](O)[C@@H](C)[C@H](OC(C)=O)[C@@H]1C [rifampicin]
Effect of rifampicin treatment on midazolam elimination ([5]; rifampicin 60 mg/kg 3 daily doses, midazolam 1 mg/kg IP day 4, both strains, higher effect in C57BL/6J): accelerated elimination
EROD metabolism after rifampicin [6]: small induction

C[C@]12CC[C@H]3[C@@H](CCC4=CC(=O)CC[C@@]43C)[C@@H]1CC[C@@H]2O [testosterone]
6β-hydroxylation of testosterone compared to wild type [7]: significant decrease
16β-Hydroxylation of testosterone compared to wild type [8]: increased
